Series [1] relates to Balb/c donor hearts implanted into B6 recipients. The series is described as follows: Mouse heterotopic heart allotransplantation model, 48 h post transplantation. The class given is in vivo. The protocol:
Heart allograft transplants were performed between Balb/c donors to B6 recipients. Balb/c donor hearts were removed, perfused with UW solution and then static cold stored in either UW solution alone or UW solution supplemented with 100 μM ACT1 peptide for 6 h at 4° C. Following storage, hearts were implanted into B6 recipients using an abdominal heart transplant procedure.
Heterotopic abdominal heart transplants were performed between Balb/c and C57Bl/6 mice, as previously described (Gao et al., 2014). Donor hearts were cold preserved in UW or UW/ACT1 ([…]) for 6 h at 4° C. Following storage, hearts were then implanted and harvested at 48 h post transplantation to access the impact of ACT1 peptide post-treatment on IRI. Post transplant injury was assessed by analyses of serum Cardiac Troponin I and histological scoring of cardiac graft injury (FIG. 9) and inflammation; neutrophil and macrophage infiltration (FIG. 10), and pro-inflammatory cytokine.

Series [2] relates to mouse cardiac endothelial cells. The series is described as follows: In vitro cold storage and reperfusion injury model, endothelial cells. The class given is cell-based. The conditions noted are these: for IL-8 secretion, endothelial cells (Elisa): UW solution supplemented with ACT1 peptide. The procedure:
These studies were conducted using a modification of the in vitro donor cold storage and reperfusion injury model (Casiraghi et al., 2009). Human umbilical vein endothelial cells (HUVECs) and mouse microvascular endothelial cells were grown to confluence on transwells and transendothelial resistance (TEER) was recorded. To model cold ischemia and reperfusion injury growth, media was removed from the cells and replaced with either ice cold UW solution or UW solution containing ACT1 peptide, and cultures were exposed to 6 h of hypoxia in a hypoxic chamber (Billups-Rothenberg, Del Mar, Calif.) at 4° C. Following hypoxic exposure, UW solution was removed, and to stimulate reperfusion, UW solution was replaced with fresh pre-warmed (37° C.) culture media, and cells were monitored for 24 h. TEER was measured at three time points post reperfusion as a marker of endothelial/epithelial cell death and dysfunction. A loss of […], as measured by TEER, across the cellular monolayer is associated with a loss of cell-cell communication (thus, gap junction and tight junction injury), cell injury, and a leaky endothelial cell lining. In vivo, this would translate as dysfunction of the cell layer and facilitate uncontrolled fluid trafficking, loss of vascular tone, reduced barrier function that would facilitate immune cell infiltration.

In series [3] the test system is human respiratory epithelial cells. The series is described as follows: In vitro cold storage and reperfusion injury model, epithelial cells. The class given is cell-based.
Series [4] has as its system HUVECs. The series is described as follows: HUVEC H2O2 oxidative injury model. The class given is cell-based, human. Conditions: 200 nM H2O2, ±ACT1 peptide. The protocol: (§1) HUVECs were exposed to two experimental conditions to model organ cold storage and reperfusion injuries. Cells were either (A) exposed to 200 nM H2O2 to induce oxidative injury, or (B) exposed to 6 h of cold preservation in UW at 4° C. in hypoxic conditions in the presence or absence of 100 μM ACT1 peptide, followed by 48 h of reperfusion in normal media.
(§2) HUVECs were exposed to either 18 h of cold storage in UW solution or UW/ACT1 followed by 48 h of reperfusion to model IRI in vitro, as previously described (Atkinson et al., 2013), or H2O2±ACT1 peptide to model oxidative stress. Efficacy was determined by TEER and IL-8 release.

The conditions of series [5]: mouse, in vivo.
Procedure: Three CD1 mice were anesthetized by IP injection of 0.2 mL Salazine/ketamine. 10 μL of 1 mM ACT1 peptide dissolved in a solution containing normal saline and 0.05% Brij-78 was gently dripped onto the corneal surface of both eyes and allowed to permeate for 20 or 40 min. 0.05% Brij-78 in normal saline was used on a control mouse. The mice were sacrificed in a CO2 chamber and cervically dislocated at 20, 40 min (the control mouse sacrificed at 20 min). The eyes were removed and rinsed in PBS. A small incision was made in the anterior chamber and the aqueous humor (˜10 μL) was transferred to tube and flash frozen in a dry ice ethanol bath. The total sample was dissolved in 2× samples loading buffer and loaded on a 10-20% Tris-Tricine gel. Gel was transferred to a PDVF membrane and stained using RBT Sigma anti-CX43 CT antibody (1:10000) and a goat anti-RBT AP secondary (1:15000) to reveal the ACT1 band at <10 kDa.
A further series deals with mouse tracheas. The series is described as follows: Mouse trachea cold storage histology. Conditions: 6 h at 4° C. in PBS+ACT1 peptide vs PBS.
The next series has as its system ARPE-19 cells. The series is described as follows: VEGF-induced deterioration of trans-epithelial resistance (TER) in ARPE19 monolayers. The conditions noted are these: ARPE19 monolayers pre-treated with the ACT peptide. The class given is cell-based, human. From the text: Thus, while not wishing to be bound by theory, stabilizing the tight junction proteins with the ACT peptide can prevent loss of tight-junction disintegration and thus damage to RPE/Bruch's membrane.

In series [6] the test system is HUVECs. The series is described as follows: HUVEC cold preservation, hypoxia and reperfusion model. The class given is cell-based, human. Conditions: 48 h reperfusion. The procedure: as §1, §2
The subject of another series is porcine kidney. The series is described as follows: Porcine kidney model of cold ischemia (Cx43, nitrotyrosine, apoptosis staining). Also noted: species or system pig. The protocol: These studies were conducted using kidneys procured from 2 standard criteria donor pigs. The organs were flushed via the aorta with preservation solution after 10 minutes of warm ischemia post-mortem. Biopsies were taken prior to treatment. The kidneys were then flushed with either cold Belzer's solution (control) or the same solution containing 100 μm ACT1 peptide, and stored in the respective solutions on ice for 24 h. Biopsies were taken at regular intervals and sections were stained for Cx43 and nitrotyrosine.

Setting [7] is: UW + 100 μM ACT1, 6 h at 4° C., 48 h post transplantation, n=6, listed as ACT1 peptide.
Where [8] appears, read: UW/ACT1 (1000 μM) 6 h at 4° C., 48 h, n=3-6.
Setting [9] is: UW solution with 100 μM ACT1, 6 h hypoxia at 4° C., 4, 8 and 24 h post reperfusion, listed as ACT1 peptide.

“Also recorded” adds a separate entry of the source.

Consider RQPKIWFPNRRKPWKKRPRPDDLEI [ACT1], for which, in series [1] (setting [7]), the “Histological injury score (FIG. 6A)” value is reported as “significantly reduced cardiac injury”, the “neutrophil infiltration (FIG. 6C)” value was “significantly reduced neutrophil” and the “serum cardiac troponin I levels (FIG. 6B)” value was “reduced serum cardiac troponin I; also recorded: significantly reduced”. Also, in [1] (setting [8]), the “macrophage (Mac-3) infiltration, immunohistochemistry (FIG. 10B)” value was “significantly reduces post transplant innate immune cell infiltration” and the “neutrophil (Gr-1) infiltration, immunohistochemistry (FIG. 10A)” value was “significantly reduces post transplant innate immune cell infiltration”. For the same sequence, in series [1] (UW/ACT1 (1000 μM) 6 h at 4° C., 48 h post transplantation, n=3-6), the “serum concentration of Cardiac troponin I (FIG. 9B)” value is on record as “significantly reduces post transplantation IRI injury”. For the same sequence, the “post transplantation IRI injury, histological grading (FIG. 9A)” value in series [1] (UW/ACT1 (1000 μM) 6 h at 4° C., 48 h post transplantation, n=3-6, listed as ACT1 peptide) is “significantly reduces ischemic reperfusion induced graft injury and inflammation; also recorded: significantly reduces post transplantation IRI injury”. Further, in [2], the “IL-8 secretion, endothelial cells (Elisa)” value is “significantly reduced pro-inflammatory cytokine (IL-8) release”. For the same sequence, in [2] (listed as ACT1 peptide), the “IL-8 secretion, endothelial cells (Elisa)” value was “significant reduction in IL-8 secretion”. The “TEER / cellular injury, endothelial cells” value in [2] (setting [9]) was “significantly elevated TEER readings; also recorded: significantly reduced cellular injury”. Also, the “IL-8 secretion, epithelial cells” value in [3] (UW solution supplemented with ACT1 peptide) is reported as “significant reduction in IL-8 secretion”. Moreover, the “TEER / cellular injury, epithelial cells” value in [3] (setting [9]) is “significantly elevated TEER readings; also recorded: significantly reduced cellular injury”. In addition, the “Trans-endothelial resistance after H2O2 oxidative injury” value in the series with HUVECs [4] is given as “significantly protects endothelial cells from H2O2 to induce oxidative stress”. Moreover, in series [5], the “ACT1 in fluid from the posterior chamber (vitreous humor), Western blot” value is reported as “Lower levels of ACT1 could also be detected”. The trachea histology result in the series on mouse tracheas is recorded as “preserved trachea histology”. In addition, the “VEGF-induced deterioration of TER” value with ARPE-19 cells was “prevents VEGF-induced deterioration of TER”. The “Trans-endothelial resistance after cold preservation, hypoxia and reperfusion” value in the series on HUVECs [6] (6 h cold preservation in UW at 4° C., hypoxic, 100 μM ACT1) is “significantly protects endothelial cells from H2O2 to induce oxidative stress, and cold preservation, hypoxic reperfusion injury”. Besides, the “IL-8 secretion after cold preservation, hypoxia and reperfusion” value in the series with HUVECs [6] (UW ± 100 μM ACT1) is on record as “rendered less pro-inflammatory as compared to untreated cells”. Further, the “apoptosis (TUNEL and caspase)” value with porcine kidney (100 μM ACT1, cold ischemia 24 h) was “minimizes mitochondrial oxidant production (nitrotyrosine) and apoptosis (TUNEL and caspase)”. For the same sequence, in the series with porcine kidney (100 μM ACT1 in cold Belzer's solution, up to 24 h cold ischemia, listed as ACT1 peptide), the “Cx43 staining (gap junctions)” value was “stabilizes gap junctions (Cx43); also recorded: Punctate Cx43 staining in the membrane (gap junctions) were preserved”.

These data come from patent US9844214B2, “Alpha connexin C-terminal (ACT) peptides for use in transplant” (MUSC Foundation for Research Development, priority 2004, dated 2017).
